Measured values as given in patent publication US20230133580A1, “MENTHOL-CONTAINING COMPOSITION” (SUNSHO PHARMACEUTICAL CO., LTD., priority 2020, published 2023).
Where a name gives a salt, the structure may show the parent alone.

Legend:
[1] = l-Menthol dissolution test; type: physicochemical; settings: for Dissolution: stored at 20° C.
Experimental: The solution was stored at 20° C. and evaluated based on the time during which the solution was maintained in a liquid state without solidifying.
A sample that solidified before being cooled down to 20° C. [e.g., during the process of cooling down to a temperature below the melting point of l-menthol (generally 42 to 45° C.)] or immediately (e.g., within 30 minutes) after being stored at 20° C. was rated D. A sample that was maintained as a solution for a while (e.g., more than 30 minutes) but solidified in less than 24 hours was rated C.

[2] = Encapsulation test C (interfacial tension against purified water); type: physicochemical; settings: for interfacial tension: against purified water
Experimental: The interfacial tension was measured with the force tensiometer SIGMA 702 (KSV Instruments LTD).

[3] = menthol concentration ranging 60 to 50 wt %
[4] = samples containing 80 to 50 wt % l-menthol
[5] = menthol concentration ranging 70 to 50 wt %

| Structure (SMILES) | Dissolution ([1]; l-Menthol 50, solvent 50 pbw) | Dissolution ([1]; l-Menthol 60, solvent 40 pbw) | Dissolution ([1]; l-Menthol 70, solvent 30 pbw) | ability to dissolve menthol (rating) [1, 3] | ability to dissolve menthol (rating) [1, 5] | further results |
| --- | --- | --- | --- | --- | --- | --- |
| CC(=O)OCCOC(C)=O [Ethylene glycol diacetate] | C (A sample that was maintained as a solution for a while (e.g., more than 30 minutes) but solidified in less than 24 hours was rated C) | C (A sample that was maintained as a solution for a while (e.g., more than 30 minutes) but solidified in less than 24 hours was rated C) | C (A sample that was maintained as a solution for a while (e.g., more than 30 minutes) but solidified in less than 24 hours was rated C) |  |  |  |
| CCOC(=O)/C=C/C(=O)OCC [Diethyl fumarate] | A (A sample that did not solidify in 10 days or more was rated A) | A (A sample that did not solidify in 10 days or more was rated A) | C (A sample that was maintained as a solution for a while (e.g., more than 30 minutes) but solidified in less than 24 hours was rated C) | A (A sample that did not solidify in 10 days or more was rated A) |  |  |
| CCCCCCCCCC(=O)OCC [Ethyl decanoate] | A (A sample that did not solidify in 10 days or more was rated A) | A (A sample that did not solidify in 10 days or more was rated A) | C (A sample that was maintained as a solution for a while (e.g., more than 30 minutes) but solidified in less than 24 hours was rated C) | A (A sample that did not solidify in 10 days or more was rated A) |  |  |
| OCc1ccccc1 [Benzyl alcohol] |  |  |  |  |  | Dissolution ([1]; l-Menthol 80, solvent 20 pbw): A (A sample that did not solidify in 10 days or more was rated A) |
| CCOC(=O)CC(=O)OCC [Diethyl malonate] | B (A sample that solidified in 24 hours or more but less than 10 days was rated B) | B (A sample that solidified in 24 hours or more but less than 10 days was rated B) | B (A sample that solidified in 24 hours or more but less than 10 days was rated B) |  |  | Dissolution ([1]; l-Menthol 80, solvent 20 pbw): B (A sample that solidified in 24 hours or more but less than 10 days was rated B); ability to dissolve menthol (rating) ([1]; regardless of the menthol concentration): B (A sample that solidified in 24 hours or more but less than 10 days was rated B); interfacial tension [2, 4]: ≥ 5 mN/m |
| CCOCCOCC [1,2-Diethoxyethane] | A (A sample that did not solidify in 10 days or more was rated A) | A (A sample that did not solidify in 10 days or more was rated A) | A (A sample that did not solidify in 10 days or more was rated A) |  | A (A sample that did not solidify in 10 days or more was rated A) |  |
| CCOC(=O)CCC(=O)OCC [Diethyl succinate] | A (A sample that did not solidify in 10 days or more was rated A) | A (A sample that did not solidify in 10 days or more was rated A) | A (A sample that did not solidify in 10 days or more was rated A) |  | A or B | Dissolution ([1]; l-Menthol 80, solvent 20 pbw): C (A sample that was maintained as a solution for a while (e.g., more than 30 minutes) but solidified in less than 24 hours was rated C); interfacial tension [2, 4]: ≥ 5 mN/m; Interfacial tension rating ([2]; l-Menthol 50, solvent 50 pbw): A (a sample having an interfacial tension of 5 mN/m or more was rated A); Interfacial tension rating ([2]; l-Menthol 60, solvent 40 pbw): A (a sample having an interfacial tension of 5 mN/m or more was rated A); Interfacial tension rating ([2]; l-Menthol 70, solvent 30 pbw): A (a sample having an interfacial tension of 5 mN/m or more was rated A); Interfacial tension rating ([2]; l-Menthol 80, solvent 20 pbw): A (a sample having an interfacial tension of 5 mN/m or more was rated A) |
| CC(=O)OCCCCCCCCOC(C)=O [1,8-Diacetoxyoctane] | A (A sample that did not solidify in 10 days or more was rated A) | C (A sample that was maintained as a solution for a while (e.g., more than 30 minutes) but solidified in less than 24 hours was rated C) | C (A sample that was maintained as a solution for a while (e.g., more than 30 minutes) but solidified in less than 24 hours was rated C) |  |  | ability to dissolve menthol (rating) ([1]; menthol concentration of 50%): A (A sample that did not solidify in 10 days or more was rated A) |
| O=C(OCc1ccccc1)c1ccccc1 [Benzyl benzoate] | B (A sample that solidified in 24 hours or more but less than 10 days was rated B) | C (A sample that was maintained as a solution for a while (e.g., more than 30 minutes) but solidified in less than 24 hours was rated C) | C (A sample that was maintained as a solution for a while (e.g., more than 30 minutes) but solidified in less than 24 hours was rated C) |  |  | ability to dissolve menthol (rating) ([1]; menthol concentration of 50%): B (A sample that solidified in 24 hours or more but less than 10 days was rated B) |
| CCCCCCCCCCCC(=O)OCC [Ethyl laurate] | A (A sample that did not solidify in 10 days or more was rated A) | A (A sample that did not solidify in 10 days or more was rated A) | C (A sample that was maintained as a solution for a while (e.g., more than 30 minutes) but solidified in less than 24 hours was rated C) | A (A sample that did not solidify in 10 days or more was rated A) |  |  |
| CCOC(=O)CCCCCCCCC(=O)OCC [Diethyl sebacate] | A (A sample that did not solidify in 10 days or more was rated A) | A (A sample that did not solidify in 10 days or more was rated A) | A (A sample that did not solidify in 10 days or more was rated A) |  | A (A sample that did not solidify in 10 days or more was rated A) | Dissolution ([1]; l-Menthol 80, solvent 20 pbw): C (A sample that was maintained as a solution for a while (e.g., more than 30 minutes) but solidified in less than 24 hours was rated C); interfacial tension ([2]; samples containing 70 to 50 wt % l-menthol): ≥ 5 mN/m |
| CCCCCCCCCCCCCCCC(=O)OCC [Ethyl palmitate] | B (A sample that solidified in 24 hours or more but less than 10 days was rated B) | B (A sample that solidified in 24 hours or more but less than 10 days was rated B) | C (A sample that was maintained as a solution for a while (e.g., more than 30 minutes) but solidified in less than 24 hours was rated C) | B (A sample that solidified in 24 hours or more but less than 10 days was rated B) |  |  |
| CCCC(=O)OCC(COC(=O)CCC)OC(=O)CCC [Tributyrin] | B (A sample that solidified in 24 hours or more but less than 10 days was rated B) | C (A sample that was maintained as a solution for a while (e.g., more than 30 minutes) but solidified in less than 24 hours was rated C) | C (A sample that was maintained as a solution for a while (e.g., more than 30 minutes) but solidified in less than 24 hours was rated C) |  |  | ability to dissolve menthol (rating) ([1]; menthol concentration of 50%): B (A sample that solidified in 24 hours or more but less than 10 days was rated B) |
| CCOC(=O)CC(O)(CC(=O)OCC)C(=O)OCC [Triethyl citrate] | C (A sample that was maintained as a solution for a while (e.g., more than 30 minutes) but solidified in less than 24 hours was rated C) | C (A sample that was maintained as a solution for a while (e.g., more than 30 minutes) but solidified in less than 24 hours was rated C) | C (A sample that was maintained as a solution for a while (e.g., more than 30 minutes) but solidified in less than 24 hours was rated C) |  |  |  |
| CC(C)COC(=O)CCCCC(=O)OCC(C)C [Diisobutyl adipate] | A (A sample that did not solidify in 10 days or more was rated A) | A (A sample that did not solidify in 10 days or more was rated A) | A (A sample that did not solidify in 10 days or more was rated A) |  | A (A sample that did not solidify in 10 days or more was rated A) | Dissolution ([1]; l-Menthol 80, solvent 20 pbw): C (A sample that was maintained as a solution for a while (e.g., more than 30 minutes) but solidified in less than 24 hours was rated C) |
| CCCCOCCOCCOCCCC [Diethylene glycol dibutyl ether] | A (A sample that did not solidify in 10 days or more was rated A) | A (A sample that did not solidify in 10 days or more was rated A) | C (A sample that was maintained as a solution for a while (e.g., more than 30 minutes) but solidified in less than 24 hours was rated C) | A (A sample that did not solidify in 10 days or more was rated A) |  |  |
| CCNCCCCCCNCC [N,N′-diethyl-1,6-hexanediamine] | A (A sample that did not solidify in 10 days or more was rated A) | A (A sample that did not solidify in 10 days or more was rated A) | A (A sample that did not solidify in 10 days or more was rated A) |  | A (A sample that did not solidify in 10 days or more was rated A) |  |
| CCCCOCCOCCCC [Ethylene glycol dibutyl ether] | A (A sample that did not solidify in 10 days or more was rated A) | A (A sample that did not solidify in 10 days or more was rated A) | A (A sample that did not solidify in 10 days or more was rated A) |  | A (A sample that did not solidify in 10 days or more was rated A) |  |
| CC(=O)OCCCCCCOC(C)=O [1,6-Diacetoxyhexane] | A (A sample that did not solidify in 10 days or more was rated A) | A (A sample that did not solidify in 10 days or more was rated A) | C (A sample that was maintained as a solution for a while (e.g., more than 30 minutes) but solidified in less than 24 hours was rated C) | A (A sample that did not solidify in 10 days or more was rated A) |  |  |
